≈ marks a conversion by molar mass, not a printed value. Read-outs that look alike come from different tables or passages of the source.
Experiments:
ZIKV = assay: Virus yield reduction assay, ZIKV in Vero E6 cells; type: cell-based; conditions: Zika virus, Vero C1008; Simian Vero E6 cells; FLAVI virus family
BHK-21 = assay: Cytotoxicity assay, BHK-21 cells; conditions: Hamster BHK-21 cells; value repeated under each virus
[1] = Cytotoxicity assay, BHK-21 cells; conditions: hamster, BHK-21 cells, CC50, Hamster BHK-21 cells; value repeated under each virus
[2] = Cytotoxicity assay (CellTiter-Blue), Vero E6 cells; conditions: monkey (simian), Vero E6 cells, CC50, Simian Vero E6 cells; value repeated under each virus
YFV [3] = assay: microbe, parasite or virus in culture; type: cell-based; conditions: Yellow fever virus, BHK-21, in Mesocricetus auratus, read-out: IC50 YFV
RVFV [4] = assay: microbe, parasite or virus in culture; type: cell-based; conditions: Rift Valley fever virus, SW13, read-out: IC50 RVFV
TOSV = assay: microbe, parasite or virus in culture; type: cell-based, Toscana virus; conditions: Toscana virus, Vero C1008, read-out: IC50 (TOSV)
VEEV [5] = assay: microbe, parasite or virus in culture; type: cell-based; conditions: Venezuelan equine encephalitis virus, SW13, read-out: IC50 VEEV
Plasma stability = conditions: 1 μm, 37° C., mouse plasma diluted with 1 volume of PBS pH 7.4
[6] = Hepatic microsome stability; conditions: 1 μm, 37° C., 0.5 mg/mL microsomes of mouse liver; cofactor: NADPH
[7] = Cytotoxicity assay, SW13 cells; conditions: human
DENV = assay: Virus yield reduction assay, DENV in Vero E6 cells; type: cell-based; conditions: Dengue virus, Vero C1008; Simian Vero E6 cells; FLAVI virus family
VEEV [8] = assay: microbe, parasite or virus in culture; type: cell-based; conditions: Venezuelan equine encephalitis virus, HEK293, read-out: IC50 VEEV
HAZV = assay: microbe, parasite or virus in culture; type: cell-based; conditions: Hazara virus, Vero C1008, read-out: IC50 HAZV
YFV [9] = assay: microbe, parasite or virus in culture; type: cell-based; conditions: Yellow fever virus, Vero C1008, read-out: IC50 YFV
RVFV [10] = assay: microbe, parasite or virus in culture; type: cell-based; conditions: Rift Valley fever virus, HEK293, read-out: IC50 RVFV
RVFV [11] = assay: microbe, parasite or virus in culture; type: cell-based; conditions: Rift Valley fever virus, Vero C1008, read-out: IC50 RVFV
VEEV [12] = assay: microbe, parasite or virus in culture; type: cell-based; conditions: Venezuelan equine encephalitis virus, Vero C1008, read-out: IC50 VEEV
TBEV [13] = assay: microbe, parasite or virus in culture; type: cell-based; conditions: Tick-borne encephalitis virus, HEK293, read-out: IC50 TBEV
Solubility in PBS pH 7.4 = conditions: PBS pH 7.4, 20 °C, pH 7.4, aqueous buffer
TBEV [14] = assay: microbe, parasite or virus in culture; type: cell-based; conditions: Tick-borne encephalitis virus, Vero C1008, read-out: IC50 TBEV
RVFV [15] = assay: microbe, parasite or virus in culture; type: cell-based; conditions: Rift Valley fever virus, BHK-21, in Mesocricetus auratus, read-out: IC50 RVFV
TBEV [16] = assay: microbe, parasite or virus in culture; type: cell-based; conditions: Tick-borne encephalitis virus, SW13, read-out: IC50 TBEV

**Q.** Which results are given for `CCCCCc1ccc(C#Cc2ccc(NC(=O)C(C)C)c(C(=O)O)c2)cc1` [Example 9, 2-Isobutyramido-5-((4-pentylphenyl)ethynyl)benzoic acid]?
**A.** IC50 (ZIKV): 23 nM; CC50 (BHK-21): 55000 nM; CC50 [1]: 50000 nM; CC50 at 4 days [2]: 4000 nM; IC50 (YFV [3]): 55 nM; IC50 (RVFV [4]): 11 nM; IC50 (TOSV): 10 nM; IC50 (VEEV [5]): 14 nM; Plasma stability [% remaining at 2 h] (Plasma stability): 98 ± 3 % remaining at 2 h; Hepatic microsome stability [% remaining at 1 h] [6]: 45 ± 8 % remaining at 1 h; CC50 [7]: 17000 nM; IC50 (DENV): 23 nM; IC50 (VEEV [8]): 1.5 nM; IC50 (HAZV): 12 nM; IC50 (YFV [9]): 16 nM; IC50 (RVFV [10]): < 1.6 nM; IC50 (RVFV [11]): 10 nM; IC50 (VEEV [12]): 10.7 nM; IC50 (TBEV [13]): 4.4 nM; solubility (Solubility in PBS pH 7.4): 13 ± 6 µM (≈ 4.91 µg/mL); IC50 (TBEV [14]): 11.7 nM; IC50 (RVFV [15]): 43 nM; IC50 (TBEV [16]): 14 nM

Reference: patent US20220227720A1, “DHODH INHIBITORS AND THEIR USE AS ANTIVIRAL AGENTS” (priority 2019, published 2022)
